# Results from PMC8951032, “Study of Biological Activities and ADMET-Related Properties of Novel Chlorinated N-arylcinnamamides” (International Journal of Molecular Sciences, 2022).
# Where two headings read alike, the source gives them in different places.
# Assays:
# [1] = test system: Staphylococcus aureus ATCC 29213; assay: In vitro antistaphylococcal activity, microtitration broth MIC; type: cell-based; settings: for MIC: Staphylococcus aureus
# [2] = test system: porcine monocyte-derived macrophages (MDM); assay: In vitro cell viability, CCK-8; type: cell-based; settings: Sus scrofa, Macrophage, 10% fetal bovine serum
# Description: The effect of the compounds on viability of eukaryotic cells was evaluated on human leukemia cell line THP-1, human synovial cell line SW982, and isolated primary porcine monocytes-delivered macrophages (MDM). The general cytotoxic effect was studied on THP-1 cells in the serum-free medium (only THP-1 as the only cells used in this study are able to survive in serum-free medium). Most of the compounds had no cytotoxic effect on THP-1 cells. […] This could be caused by the direct interaction of such compounds with serum proteins or by the effect of mitogens, cytokines, and hormones present in the serum. Obviously, the full medium is closer to physiological conditions in living organisms, so it can be assumed that these compounds could be non-toxic there.
# Porcine monocyte-derived macrophages (MDMs) were prepared, as described previously. Briefly, blood was collected from three-month-old pigs and peripheral blood mononuclear cells (PBMC) were isolated by gradient centrifugation (830× g, 40 min) using Histopaque-1077 (Sigma). CD14+ cells were isolated by positive magnetic bead selection with LS separation columns (Miltenyi Biotec, Bergisch Gladbach, Germany). Isolated monocytes were cultured in 96-well plates at a concentration of 1 × 10^5 cells per well in 0.2 mL of DMEM supplemented with 10% FBS and 1% antibiotics (Antibiotic Antimycotic Solution 100 × 10,000 units penicillin, 10 mg streptomycin, and 25 μg amphotericin B per mL; Sigma) and incubated for five days at 37 °C in 5% CO2 to differentiate into macrophages. Then, MDMs were cultured for 24 h with tested substances and the relative cell viability was determined by CCK-8 kit (Sigma) following manufacturer instructions.
# THP-1 cells = assay: Cell death assay by flow cytometry (Annexin V / LIVE/DEAD); type: cell-based, human; settings: serum-free medium, 24 h
# Description: Subsequently, compounds 2k and 2q were selected for analysis by flow cytometry and cytotoxic effects were detected after treatment of cells by 2k and 2q in serum-free medium at two selected concentrations, 1.0 µM and 0.5 µM, respectively. […] Moreover, 2k increased the number of dead cells (20%) (Figure 2). […] Thus, it can be assumed that 2k attenuates cell metabolism.
# Annexin V eFluor450 (Invitrogene, Waltham, MA, USA) with LIVE/DEAD Fixable Far Red Dead Cell Stain Kit (Invitrogene) were used for the analysis of cell death. THP-1 cells resuspended in serum-free medium and treated by two selected drugs, such as 2q and 2k, by IC50 concentrations, 0.5 µM and 1.0 µM, respectively, for 24 h. Cells were double-stained by AnnexinV eFluor 450 (1:20) and LIVE/DEAD Fixable Far Red (3:1000). Finally, the cells were analysed by flow cytometer (Amnis CellStream; Luminex, Austin, TX, USA) and the data were evaluated by CellStream Analysis 1.2.55 software. The dot plots were divided into four quadrants. Live cells (low left quadrant), apoptosis (upper-left quadrant) and necrosis as a terminal stage of cell death (upper-right quadrant) were distinguished. Experiments were performed in duplicates and in three independent repetitions.
# [3] = ATCC29213, 24 h, S. aureus ATCC 29213, read-out: log(1/MIC [M]) SA (converted)
# [4] = ATCC29213, S. aureus ATCC 29213, 24 h, read-out: MIC SA
# [5] = 24 h, read-out: IC50 MDM 10% FSB
# [6] = read-out: log(1/IC50 [M]) MDM 10% FSB (converted)
"MIC [1, 3]","MIC [1, 4]",Compound,"IC50 [2, 5]","IC50 [2, 6]",activity against S. aureus and MRSA isolates (in words) [1],number of dead cells (THP-1 cells; 2k 1.0 µM),apoptosis (in words) (THP-1 cells; 2q 0.5 µM),necrosis (in words) (THP-1 cells; 2q 0.5 µM)
6.17e-06 M,6.14e-06 M,"O=C(/C=C/c1ccc(Cl)cc1)Nc1cccc(C(F)(F)F)c1 [1i, (2E)-3-(4-Chlorophenyl)-N-[3-(trifluoromethyl)phenyl]prop-2-enamide]",> 1e-05 M,> 1e-05 M,,,,
3.8e-07 M,3.83e-07 M,"O=C(/C=C/c1ccc(Cl)cc1)Nc1cc(Cl)cc(Cl)c1 [1p, (2E)-3-(4-Chlorophenyl)-N-(3,5-dichlorophenyl)prop-2-enamide]",> 1e-05 M,> 1e-05 M,submicromolar,,,
3.16e-07 M,3.18e-07 M,"O=C(/C=C/c1ccc(Cl)cc1)Nc1cc(C(F)(F)F)cc(C(F)(F)F)c1 [1q, (2E)-N-[3,5-bis(Trifluoromethyl)phenyl]-3-(4-chlorophenyl)prop-2-enamide]",> 1e-05 M,> 1e-05 M,submicromolar,,,
1.38e-05 M,1.36e-05 M,"O=C(/C=C/c1ccc(Cl)c(Cl)c1)Nc1ccccc1 [2a, (2E)-3-(3,4-Dichlorophenyl)-N-phenylprop-2-enamide]",> 1e-05 M,> 1e-05 M,,,,
1.38e-06 M,1.39e-06 M,"O=C(/C=C/c1ccc(Cl)c(Cl)c1)Nc1cccc(C(F)(F)F)c1 [2i, (2E)-3-(3,4-Dichlorophenyl)-N-[3-(trifluoromethyl)phenyl]prop-2-enamide]",> 1e-05 M,> 1e-05 M,,,,
6.92e-07 M,6.94e-07 M,"O=C(/C=C/c1ccc(Cl)c(Cl)c1)Nc1ccc(C(F)(F)F)cc1 [2j, (2E)-3-(3,4-Dichlorophenyl)-N-[4-(trifluoromethyl)phenyl]prop-2-enamide]",> 1e-05 M,> 1e-05 M,submicromolar,,,
2.95e-07 M,1.33e-06 M,"O=C(/C=C/c1ccc(Cl)c(Cl)c1)Nc1ccc(OC(F)(F)F)cc1 [2k, (2E)-3-(3,4-Dichlorophenyl)-N-[4-(trifluoromethoxy)phenyl]prop-2-enamide]",> 1e-05 M,> 1e-05 M,,20%,,
1.32e-06 M,2.92e-07 M,"O=C(/C=C/c1ccc(Cl)c(Cl)c1)Nc1cc(C(F)(F)F)cc(C(F)(F)F)c1 [2q, (2E)-N-[3,5-bis(Trifluoromethyl)phenyl]-3-(3,4-dichlorophenyl)prop-2-enamide]",5e-06 to 1e-05 M,,submicromolar,,not observed,significantly induced
